Among the test systems are M14 melanoma; IGROV1 ovarian; UO-31 renal; NCI-H23 lung; NCI/ADR-RES ovarian; TK-10 renal; SK-MEL-2 melanoma; SN12C renal; COLO 205 colon; MDA-MB-231 breast; HS 578T breast; RPMI-8226 leukemia.
Assay in all cases: NCI-60 cell line screen, 48 h

Molecules are shown by their SMILES.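 All cell lines were grown in 96-well plates and treated with compound for 48 hours. GI50: concentration for 50% inhibition of growth. Definition used: TGI = concentration required for complete inhibition of growth.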

Turning to `c1ccc(-c2nn(-c3ccccc3)[n+](-c3ccccc3)n2)cc1`, the TGI in the test on M14 melanoma is 47.5 µM; in the test on IGROV1 ovarian, greater than 100 µM; with UO-31 renal, greater than 100 µM; in the test on NCI-H23 lung, 28.3 µM; in the test with NCI/ADR-RES ovarian, greater than 100 µM; with TK-10 renal it was greater than 88 µM. The TGI with SK-MEL-2 melanoma was greater than 80.1 µM; with SN12C renal, greater than 100 µM; with COLO 205 colon it was greater than 92.4 µM; in the test with MDA-MB-231 breast, greater than 100 µM; in the test on HS 578T breast, greater than 100 µM.
For `CCC(C)C(=O)c1c(O)c(C/C=C(\C)CCC=C(C)C)c(O)c2c(C(O)CC)cc(=O)oc12` (configuration not stated), the TGI came to 14.4 µM with M14 melanoma; 13.6 µM with IGROV1 ovarian; 6.95 µM in the test with UO-31 renal; 3.89 µM with NCI-H23 lung; 13.1 µM in the test with TK-10 renal; 3.83 µM in the test on SK-MEL-2 melanoma. Moreover, the TGI in the test with SN12C renal is 8.26 µM; in the test on COLO 205 colon, 7.27 µM; in the test with RPMI-8226 leukemia, 3.51 µM.
Take `CC[n+]1c(/C=C/c2ccc(N(CCCl)CCCl)cc2)ccc2cc(NC(=O)/C=C/c3ccccc3)ccc21`: the TGI in the test on M14 melanoma is 3.28 µM; in the test with IGROV1 ovarian, 1.86 µM; in the test on UO-31 renal it was 52.2 µM; in the test on NCI-H23 lung, 1.98 µM; with NCI/ADR-RES ovarian, greater than 100 µM; in the test on TK-10 renal, 24.5 µM. Further, the TGI was 1.27 µM in the test on SK-MEL-2 melanoma; 1.52 µM with SN12C renal; 0.222 µM with COLO 205 colon; 0.696 µM in the test with RPMI-8226 leukemia; 1.09 µM in the test on MDA-MB-231 breast; 1.25 µM with HS 578T breast.
With `Cn1c(-c2ccc(/C=N\N3CCN(/N=C/c4ccc(-c5c[n+]6ccccc6n5C)cc4)CC3)cc2)c[n+]2ccccc12`, the TGI with M14 melanoma, with IGROV1 ovarian, in the test on UO-31 renal, in the test on NCI-H23 lung, in the test on NCI/ADR-RES ovarian and with TK-10 renal was greater than 100 µM each time. The TGI with SK-MEL-2 melanoma is greater than 100 µM; with SN12C renal, greater than 100 µM; in the test with COLO 205 colon, greater than 100 µM; in the test with RPMI-8226 leukemia, greater than 100 µM; in the test with MDA-MB-231 breast it was 75 µM; in the test on HS 578T breast, 92.8 µM.
Take `COc1ccc(CC(C)N)cc1` (configuration not stated): the TGI in the test on M14 melanoma, in the test with IGROV1 ovarian, in the test on UO-31 renal, in the test with NCI-H23 lung, in the test with TK-10 renal and in the test on SK-MEL-2 melanoma was greater than 100 µM each time. For the same compound, the TGI with SN12C renal, with COLO 205 colon and with RPMI-8226 leukemia was greater than 100 µM throughout.
For the compound `CC1(C)N=C(N)N=C(N)N1c1cccc(OCCOc2ccc([N+](=O)[O-])cc2)c1`, the TGI in the test with M14 melanoma, in the test on IGROV1 ovarian, in the test with NCI-H23 lung, in the test with TK-10 renal, with SK-MEL-2 melanoma and in the test with SN12C renal was greater than 100 µM each time. The TGI in the test on COLO 205 colon, in the test on RPMI-8226 leukemia, in the test on MDA-MB-231 breast and with HS 578T breast was greater than 100 µM throughout.
Take `COc1cc(C2c3cc4c(cc3[C@@H](Nc3cccc(C(C)=O)c3)C3COC(=O)[C@H]23)OCO4)cc(OC)c1O` (some centres not stated): the TGI is 24.6 µM in the test on IGROV1 ovarian; 6.89 µM in the test on UO-31 renal; 3.14 µM in the test on NCI-H23 lung; greater than 100 µM in the test with NCI/ADR-RES ovarian; 7.43 µM in the test on SK-MEL-2 melanoma; 5.05 µM in the test on COLO 205 colon. Also, the TGI with RPMI-8226 leukemia came out at 2.21 µM.
`O=[N+]([O-])c1cn[n+]([O-])c2ccccc12`: the TGI in the test on M14 melanoma is 13 µM; in the test with NCI-H23 lung it was 36.1 µM; in the test on NCI/ADR-RES ovarian, 19.2 µM; with TK-10 renal, 25.8 µM; in the test with SN12C renal, 21.5 µM; with COLO 205 colon, 26.5 µM. Further, the figures for the TGI in the test on RPMI-8226 leukemia, in the test on MDA-MB-231 breast and with HS 578T breast were 7.37 µM, 27.3 µM and 29.1 µM, respectively.
With `Brc1ccccc1-c1ncc(-c2ccccc2)o1`, the TGI with M14 melanoma was greater than 100 µM; in the test on IGROV1 ovarian it was 78.7 µM; with UO-31 renal it was greater than 100 µM; with NCI-H23 lung, greater than 100 µM; with NCI/ADR-RES ovarian it was greater than 100 µM; in the test with TK-10 renal, greater than 100 µM. Further, the TGI in the test with SK-MEL-2 melanoma is 89.9 µM; in the test on SN12C renal, greater than 100 µM; in the test on COLO 205 colon, 39.5 µM; with RPMI-8226 leukemia, 48.8 µM; with MDA-MB-231 breast, greater than 100 µM; in the test on HS 578T breast, 41 µM.
Consider `COc1ccc(NC(=O)/C(CC2=Nc3ccc([N+](=O)[O-])cc3NC2O)=N\NC(=O)C[N+](C)(C)C)c(OC)c1` (configuration not stated), for which the TGI in the test on M14 melanoma, with IGROV1 ovarian, with UO-31 renal, in the test with NCI-H23 lung, with NCI/ADR-RES ovarian and in the test with TK-10 renal was greater than 100 µM throughout. Further, the TGI in the test with SK-MEL-2 melanoma is greater than 100 µM; with SN12C renal, greater than 100 µM; in the test with COLO 205 colon it was greater than 100 µM; in the test on MDA-MB-231 breast, 42.1 µM; in the test on HS 578T breast, greater than 100 µM.
As for `COc1ccc(-c2cc(N3CCN(c4ccccc4)CC3)c(C#N)c(=O)o2)cc1`, the TGI in the test with M14 melanoma is greater than 100 µM; in the test on IGROV1 ovarian it was greater than 100 µM; in the test with UO-31 renal, 44.8 µM; in the test with NCI-H23 lung, greater than 100 µM; in the test with TK-10 renal, 58 µM; in the test with SK-MEL-2 melanoma, 53.6 µM. Moreover, the TGI in the test with SN12C renal, in the test with COLO 205 colon and with RPMI-8226 leukemia was greater than 100 µM throughout.
With `Cc1ccc(S(N)(=O)=O)cc1`, the TGI with M14 melanoma, with IGROV1 ovarian, in the test on UO-31 renal, in the test with NCI-H23 lung, in the test with NCI/ADR-RES ovarian and in the test with TK-10 renal was greater than 1000 µM each time. In addition, the TGI in the test with SK-MEL-2 melanoma, in the test on SN12C renal, in the test with COLO 205 colon, in the test on RPMI-8226 leukemia and in the test with HS 578T breast was greater than 1000 µM throughout.
As to `CN(C)c1ccc(N=Nc2ccccn2)cc1`, the TGI is greater than 100 µM in the test on M14 melanoma; greater than 100 µM in the test on IGROV1 ovarian; 79.8 µM with UO-31 renal; 83.2 µM with NCI-H23 lung; 66.1 µM in the test with NCI/ADR-RES ovarian; greater than 100 µM in the test with TK-10 renal. For the same compound, the TGI in the test with SK-MEL-2 melanoma was greater than 100 µM; with SN12C renal, greater than 100 µM; with COLO 205 colon, 21.8 µM; in the test with RPMI-8226 leukemia, greater than 100 µM; in the test with MDA-MB-231 breast, greater than 100 µM; in the test on HS 578T breast, greater than 100 µM.
Take `N#Cc1c(NC(=S)NC(=O)c2ccccc2)nc2c(c1-c1ccccc1)CCCC2`: the TGI in the test with M14 melanoma, in the test on IGROV1 ovarian, in the test on UO-31 renal, with NCI-H23 lung, in the test with NCI/ADR-RES ovarian and in the test with TK-10 renal was greater than 100 µM in each case. Also, the TGI is greater than 100 µM with COLO 205 colon, greater than 100 µM in the test on RPMI-8226 leukemia, greater than 100 µM with MDA-MB-231 breast and 35 µM with HS 578T breast.
On to `NCc1ccccc1C1CSCSC1`, for which the TGI in the test on UO-31 renal, with NCI-H23 lung, in the test on TK-10 renal, with SK-MEL-2 melanoma and with SN12C renal was greater than 100 µM each time.
For the compound `CC(C)(Br)C1(O)CCCN1C(=O)c1ccccc1` (configuration not stated), the TGI in the test with M14 melanoma, in the test with IGROV1 ovarian, with UO-31 renal, in the test with NCI-H23 lung, with TK-10 renal and in the test with SK-MEL-2 melanoma was greater than 100 µM each time. For the same compound, the TGI with SN12C renal and in the test on COLO 205 colon was greater than 100 µM throughout.
As to `C=C1C(=O)OC2C1CC(O)/C(C)=C\CCC1(C)OC21` (configuration not stated), the TGI in the test on M14 melanoma was 64.4 µM; in the test on IGROV1 ovarian, greater than 100 µM; in the test with UO-31 renal it was 66.6 µM; in the test with NCI-H23 lung it was greater than 100 µM; in the test on NCI/ADR-RES ovarian it was 62.3 µM; in the test on TK-10 renal, greater than 100 µM. In addition, the TGI with SK-MEL-2 melanoma stood at 44.5 µM; with COLO 205 colon it was 89.9 µM; in the test on RPMI-8226 leukemia, 65.4 µM; in the test on MDA-MB-231 breast, 35.4 µM; with HS 578T breast, 67.9 µM.
Turning to `C#CC[C@@H]1C[C@]2(C)[C@H]3CC=C4[C@H]5CC(C)(C)CC[C@]5(C(=O)NCCCCN)CC[C@@]4(C)[C@]3(C)CC[C@H]2C(C)(C)[C@H]1OC(C)=O`, the GI50 was 1.62 µM in the test on IGROV1 ovarian; 1.41 µM in the test on UO-31 renal; 1.75 µM in the test with NCI-H23 lung; 1.78 µM with SK-MEL-2 melanoma; 1.76 µM with SN12C renal; 1.72 µM in the test on COLO 205 colon. In addition, the GI50 in the test on MDA-MB-231 breast was 1.61 µM; in the test with HS 578T breast, 1.73 µM. The TGI in the test on IGROV1 ovarian was 3.02 µM; in the test on UO-31 renal, 2.71 µM; in the test on NCI-H23 lung, 3.47 µM; in the test on SK-MEL-2 melanoma it was 3.45 µM; in the test on SN12C renal, 3.28 µM; in the test on COLO 205 colon it was 3.32 µM. For the same compound, the TGI in the test on MDA-MB-231 breast came out at 3.1 µM; with HS 578T breast, 3.71 µM.
With `NCc1ccc(C(=O)O)cc1`, the TGI in the test on M14 melanoma, in the test with IGROV1 ovarian, in the test with UO-31 renal, in the test with NCI-H23 lung, with NCI/ADR-RES ovarian and in the test on TK-10 renal was greater than 100 µM each time. For the same compound, the TGI in the test with SN12C renal and in the test on MDA-MB-231 breast was greater than 100 µM each time.
With `CCO/N=[N+](\[O-])N(CC)CC`, the TGI with M14 melanoma, in the test on IGROV1 ovarian, with UO-31 renal, in the test with NCI-H23 lung, with TK-10 renal and in the test on SK-MEL-2 melanoma was greater than 100 µM in each case. This compound also displayed a TGI with SN12C renal greater than 100 µM.
Take `COc1cc[n+](C)cc1`: the TGI with IGROV1 ovarian, in the test with UO-31 renal, in the test with NCI-H23 lung, in the test on NCI/ADR-RES ovarian, with SK-MEL-2 melanoma and with SN12C renal was greater than 100 µM throughout. The TGI in the test with COLO 205 colon and with RPMI-8226 leukemia was greater than 100 µM throughout.
